From patent US6514686B2, “Method and composition for modulating amyloidosis” (The University of British Columbia, priority 1997, dated 2003)

What was measured:
Type in all cases: cell-based
[1] = tested on: APPs secretion in wild-type PC12 cells; assay: APPs secretion from wild-type PC12 cells, fifteen minute exposure
Description: Phorbol 12-myristate 13-acetate (PMA) was purchased from LC Service Corp., Woburn, Mass. All other materials were obtained as previously described in Example 1. Wild-type PC12 cells were purchased from the American Type Tissue Culture Collection # CRL-1721 and grown in DMEM with 5% FBS fetal bovine serum and 10% horse serum (GIBCO).
PC12 cells grown to confluence were pretreated for twelve hours in DMEM supplemented with charcoal-stripped calf serum (SIGMA) as described above. After pretreatment, cells were trypsinized, resuspended, and counted as described above. 10 mls each of 1.0×10^6 cells/ml PC12 cells were aliquoted into 15 ml conical tubes containing the appropriate treatment group. PMA was used as a positive control as previous experiments had shown that such treatment increases APPs release (Buxbaum, J. D. et al., “Processing of Alzheimer β/A4 amyloid precursor protein: Modulation by agents that regulate protein phosphorylation”, Proc. Natl. Acad. Sci. USA 87:6003-6006 (1990); Caporaso, G. L. et al., “Protein phosphorylation regulates secretion of Alzheimer β/A4 amyloid precursor protein”, Proc. Natl. Acad. Sci. USA 89:3055-3059 (1992); Mills, J. and P. B. Reiner, “Phorbol esters but not the cholinergic agonists oxotremorine-M and carbachol increase release of the amyloid precursor protein in cultured rat cortical neurons”, J. Neurochem. 67:1511-1518 (1996), the teachings of which are hereby incorporated by reference). The final percentage of DMSO in all treatment groups was normalized to 0.01% (v/v).
Treatment groups were as follows: a) Control; b) PMA (0.1 μM); c) RU-486 (0.1 μM). The concentration of (0.1 μM) RU-486 was chosen because it was near the EC50 mark (FIG. 4). 1.0 ml of each treatment group was pipetted into 1.5 eppendorf tubes and incubated at 37° C. in a […] incubator for fifteen minutes. Harvesting and concentration of APPs were performed as described in Example 1. Protein band separation on SDS-PAGE, visualization of bands, and quantification of APPs were also performed as previously described.
Materials and methods utilized were as outlined above. […]

[2] = tested on: APPs secretion in KB-3.1 human carcinoma cell line; assay: APPs secretion from KB-3.1 cells with sub-detectable p-glycoprotein
Protocol: These cells were grown in DMEM with 10% FBS. All materials and methods are as outlined as above.

[3] = tested on: APPs secretion in KB-3.1 cells transfected with human MDR1 (p-glycoprotein); assay: APPs secretion from KB-3.1 cells transiently transfected with pHaMDR1; conditions: 0.1 μM, fifteen minutes, plated cells, transfection efficiency ~10-20%; FIG. 10
Protocol: KB-3.1 cells were grown as described above. The pHaMDR1 plasmid construct encoding human MDR1 was obtained as a gift from Dr. Ira Pastan (National Cancer Institute).
For calcium-phosphate transfections, cells were plated onto 10 cm polypropylene petri dishes (Falcon) at a density of 2.0×10^6 cells/dish. To prepare the cDNA for transfection, 15 μg/plate of pHaMDR1 cDNA was mixed together with 1/10 volumes of 3 M sodium Acetate, ˜3× volume of 100% ethanol in a 1.5 ml eppendorf tube and spun in a desktop centrifuge for thirty seconds. The tube was then filled to the top with ethanol and spun at 15,000 rpm at 4° C. for ten minutes. The ethanol was aspirated, leaving a tiny pellet of cDNA on the bottom. In a sterile fumehood, the cDNA was resuspended with 450 μl of 0.1× tris-EDTA(TE) ethylene diamine tetraacetic acid, tris EDTA and 50 μl of 2.5 M CaCl2. 500 μL of 2× BES (50 mM N, N-bis[2 Hydroxyethyl]2-aminoethanesu acid, 280 mM NaCl, 1.5 mM Na2HPO4.2 H2O, pH 6.96) was added to make a final volume of 1.0 ml. The entire mixture was allowed to sit for twenty minutes before adding the contents to the plate of cells. […]
Exposures were performed without resuspending the cells, in contrast to previous experiments described above. […] 5 μl from each sample was collected for protein quantification. Protein determination and APPs quantification were performed as previously described.

[4] = tested on: APPs secretion in GSrasDN1 PC12 cells; assay: APPs secretion from GSrasDN1 PC12 cells (22C11 western blot, densitometry)
Description: The GSrasDN1 PC12 subline (Dr. Simon Halegous (State University of New York at Stony Brook)) expressing the dominant inhibitory mutant ras gene, p21^N17 under the control of a dexamethasone-inducible MMTV promoter (mouse mammary tumor virus), obtained as a gift from Dr. Simon Halegoua, (Kremer et al., J. Cell Biol. 115(3):809-819 (1991)) and grown in Dulbecco's modified Eagles' medium (DMEM, GIBCO) containing 5% fetal bovine serum (FBS: v/v) and 10% heat inactivated horse serum (HS, GIBCO).
RU-486 and NGF were solubilized in dimethylsulfoxide (DMSO). DMSO was used as a control vehicle in all experiments.
For drug exposure experiments in GSrasDN1 PC12 cells, cells were grown to confluence in 75 cm^2 polypropylene culture flasks from Falcon. Twelve hours prior to drug treatment, the culture medium was aspirated using a pasteur pipette and replaced with 10 ml of DMEM supplemented with 15% charcoal-stripped calf serum (SIGMA) to remove complement, immunoglobulins and endogenous steroid hormones secreted from the cells. Twelve hours later, this supplemental medium was aspirated and replaced with 10 ml of DMEM containing the treatment drugs. Flasks were allotted into the following treatment groups: a) Control and b) RU-486 (3.0 μM). DMSO concentrations were normalized to 0.06% (v/v) in all flasks.
Twelve hours following drug exposure, the medium was again aspirated and the cells were washed once with 10 ml of phosphate-buffered saline (PBS, SIGMA). Cells were removed from the bottom of the flask by incubating with 1.0 ml of trypsin (GIBCO) for five minutes. […]
After the fifteen minutes had elapsed, the tubes were placed immediately on ice to stop any reactions and 200 μl of a protease cocktail (100 μM PMSF (phenylmethanesulfonyl fluoride), 5 μg/ml Leupeptin, 5 μg/ml Aprotinin, and 5)μg/ml Pepstatin) was added to each tube. […] The nuclear fraction was pelletted down at 14,000 rpm for ten min. and 5 μl of cellular homogenate was collected for a protein quantification. […]

[5] = RU-486, dexamethasone 0.1 μM, progesterone, desmethoxyverapamil 1 μM, FIG. 7, 8

With `CCCCCCCCCCCCCC(=O)O[C@@H]1[C@@H](C)[C@@]2(O)[C@@H](C=C(CO)C[C@]3(O)C(=O)C(C)=C[C@@H]23)[C@@H]2C(C)(C)[C@]12OC(C)=O` [PMA, Phorbol 12-myristate 13-acetate] the “effect on APPs secretion” value ([1]; 0.1 μM, no drug pretreatment, FIG. 5) was “increase”, the “modulation of APPs secretion” value ([2]; cells in suspension, FIG. 9) was “do not regulate” and the “regulation of APPs secretion” value ([2]; non-transfected cells exposed while plated, 0.1 μM, fifteen minutes) was “no regulation”. For the same compound, the “regulation of APPs secretion” value [3] was “restored regulation”.

For `CC#C[C@]1(O)CC[C@H]2[C@@H]3CCC4=CC(=O)CCC4=C3[C@@H](c3ccc(N(C)C)cc3)C[C@@]21C` [RU-486, 17β-hydroxy-11β-[4-dimethylaminophenyl]-17α prop-l-ynyl estra-4,9-dien-3 one], the “increase in APPs secretion over NGF” value ([4]; RU-486 3.0 μM versus NGF 50 ng/ml, FIG. 2) was about 6 fold, the “increase in APPs secretion over control samples” value ([4]; RU-486 3.0 μM, twelve hours exposure, APPs collected fifteen minutes, FIG. 2) was about 12.5 fold and the “increased APPs secretion” value ([4]; at 3.0 μM RU-486, sub-maximal concentration, FIG. 4) was about 21 fold.

With `COc1cccc(CCN(C)CCCC(C#N)(c2ccc(OC)c(OC)c2)C(C)C)c1` (stereo not drawn) [desmethoxyverapamil] the “effect on APPs secretion” value [1, 5] was “significantly increased”.

With `CC(=O)[C@H]1CC[C@H]2[C@@H]3CCC4=CC(=O)CC[C@]4(C)[C@H]3CC[C@]12C` [progesterone, Progesterone] the “effect on APPs secretion” value [1, 5] was “significantly increased”.
